Source: patent US8580747B2, “Cyclic natriuretic peptide constructs” (Palatin Technologies, Inc., priority 2006, dated 2013)
Like-named read-outs stand apart in the source and are kept apart here. Bridge positions count the residues as written; N and C are the ends. Square brackets hold non-standard residues; d marks the D form. Peptide text beside a SMILES is read from it. * marks the point of attachment. Piperazin2one(3S-Bu,6R-CO) = CCCC[C@@H]1NC[C@H](C(=O)*)NC1=O; X1 = N=C(N)NCCC[C@H]1C(=O)N[C@@H](C(N)=O)CN1*; dNle = CCCC[C@@H](N)C(=O)O; Heptanoyl = CCCCCCC(=O)*; Nle = CCCC[C@H](N)C(=O)O; Orn = NCCC[C@H](N)C(=O)O

Key:
[1] = molecular target: T1, NEP (neutral endopeptidase) (Homo sapiens, UniProt P08473); test: hNEP resistance assay (digestion by neutral endopeptidase); format: in vitro ADME; conditions: pH 7.4
T1 construct: purchased R&D Systems, Minneapolis, Minn; 1182-ZN
Procedure: NEP resistance of various constructs of the invention was evaluated using the following experimental procedure. All constructs were diluted in 0.1 M Tris-HCL buffer (pH 7.4) to 100 μM. 40 μL of diluted constructs were added to each tube and all tubes were kept on ice. 40 μL of diluted NEP, either human recombinant NEP (R&D Systems, Minneapolis, Minn., catalogue #1182-ZN) at 8 ng/μL or mouse NEP (R&D Systems, catalog #1126-ZN) at 2.5 ng/μL, was added to each tube. The tubes were mixed gently and spun. […] At the end of the incubation time, the reaction was stopped by adding 5 μL of 10% TFA. […] The extent to which NEP was active against the constructs was then analyzed by HPLC and/or LC/MS. Data analysis included determining the percent of remaining starting material, i.e., undigested peptide construct, and the percent and sequence of each proteolytic fragment.

[2] = rat, in vivo, iv
[3] = rat, in vivo, sc
[4] = human, isolated enzyme neprilysin
[5] = human recombinant NEP (neutral endopeptidase), incubation with human recombinant NEP at 37° C., 1 h, read-out: hNEP % of Starting Material 1 h
[6] = human recombinant NEP (neutral endopeptidase), incubation with human recombinant NEP at 37° C., 2 h, read-out: hNEP % of Starting Material 2 h

T1 sequence (P08473 52-750 limits assumed): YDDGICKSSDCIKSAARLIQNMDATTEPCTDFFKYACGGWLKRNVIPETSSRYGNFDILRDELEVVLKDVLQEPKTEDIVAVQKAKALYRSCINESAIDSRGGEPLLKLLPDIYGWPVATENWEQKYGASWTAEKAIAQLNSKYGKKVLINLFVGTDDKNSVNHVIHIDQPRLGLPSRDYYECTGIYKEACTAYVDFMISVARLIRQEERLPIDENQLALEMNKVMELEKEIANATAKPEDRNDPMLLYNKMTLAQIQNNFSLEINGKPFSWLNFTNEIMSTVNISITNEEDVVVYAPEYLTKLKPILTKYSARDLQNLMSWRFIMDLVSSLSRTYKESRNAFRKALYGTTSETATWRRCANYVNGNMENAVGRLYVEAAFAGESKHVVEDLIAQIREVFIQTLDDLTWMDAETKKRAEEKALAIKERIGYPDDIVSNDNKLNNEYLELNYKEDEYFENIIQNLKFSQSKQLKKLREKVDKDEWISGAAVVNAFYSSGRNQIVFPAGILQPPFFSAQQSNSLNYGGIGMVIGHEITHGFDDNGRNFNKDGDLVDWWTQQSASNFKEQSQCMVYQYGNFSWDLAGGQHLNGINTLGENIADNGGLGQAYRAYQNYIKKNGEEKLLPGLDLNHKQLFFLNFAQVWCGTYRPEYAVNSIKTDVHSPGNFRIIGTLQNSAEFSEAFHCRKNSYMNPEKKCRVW

| remaining at 1 h, 50 µM [1, 4] | remaining at 2 h, 50 µM [1, 4] | clearance [2] | AUC ([2]; 0.3 mg/kg) | Vd ([2]; 0.3 mg/kg) | clearance ([2]; 0.3 mg/kg) | half-life ([2]; 0.3 mg/kg) | AUC ([2]; 2 mg/kg) | Vd ([2]; 2 mg/kg) | clearance ([2]; 2 mg/kg) | half-life ([2]; 2 mg/kg) | SMILES | also measured |
| --- | --- | --- | --- | --- | --- | --- | --- | --- | --- | --- | --- | --- |
| 67% | 44% | 203 mL/min/kg | 0.033 µM·h | 5.8 L/kg | 546 mL/min/kg | 18 min | 0.067 µM·h | 4.6 L/kg | 290 mL/min/kg | 18 min | CCCCCCC(=O)N[C@H]1CSSC[C@@H](C(=O)N[C@@H](Cc2ccc(O)cc2)C(=O)N2C[C@H](C(N)=O)NC(=O)[C@@H]2CCCNC(=N)N)NC(=O)[C@H](CO)NC(=O)[C@H]([C@@H](C)CC)NC(=O)[C@H](CCCNC(=N)N)NC(=O)[C@H](CC(=O)O)NC(=O)[C@H](CCCC)NC(=O)[C@H](CCCNC(=N)N)NC(=O)CNC(=O)CNC(=O)[C@H](Cc2ccccc2)NC(=O)[C@H](Cc2c[nH]cn2)NC1=O [1-63] (Heptanoyl-CHFGGR[Nle]DRISCY-X1; disulfide 1-12) | AUC ([3]; 1 mg/kg): 0.007 µM·h; Cmax ([3]; 1 mg/kg): 26 nM; Tmax ([3]; 1 mg/kg): 6 min; half-life ([3]; 1 mg/kg): 12 min |
| 93% | 86% | 15 mL/min/kg | – | – | – | – | 1.54 µM·h | 0.4 L/kg | 15 mL/min/kg | 30 min | CCCC[C@@H]1NC[C@H](C(=O)N[C@H]2CSSC[C@@H](C(=O)N[C@@H](Cc3ccc(O)cc3)C(=O)N3C[C@H](C(N)=O)NC(=O)[C@@H]3CCCNC(=N)N)NC(=O)[C@H](CO)NC(=O)[C@H]([C@@H](C)CC)NC(=O)[C@H](CCCNC(=N)N)NC(=O)[C@@H](CC(=O)O)NC(=O)[C@H](CCCC)NC(=O)[C@H](CCCNC(=N)N)NC(=O)CNC(=O)CNC(=O)[C@H](Cc3ccccc3)NC(=O)[C@H](Cc3c[nH]cn3)NC2=O)NC1=O [1-44] ({Piperazin2one(3S-Bu,6R-CO)}-CHFGGR[Nle][dD]RISCY-X1; disulfide 1-12) | – |
| – | – | 456 mL/min/kg | – | – | – | – | 0.042 µM·h | 0.8 L/kg | 456 mL/min/kg | 6 min | CCCC[C@@H]1NC[C@H](C(=O)N[C@H]2CSSC[C@@H](C(=O)N[C@@H](Cc3ccc(O)cc3)C(=O)N3C[C@H](C(N)=O)NC(=O)[C@@H]3CCCNC(=N)N)NC(=O)[C@H](CO)NC(=O)[C@H]([C@@H](C)CC)NC(=O)[C@H](C)NC(=O)[C@H](CC(=O)O)NC(=O)[C@H](CCCC)NC(=O)[C@H](C)NC(=O)CNC(=O)CNC(=O)[C@H](Cc3ccccc3)NC(=O)[C@H](Cc3c[nH]cn3)NC2=O)NC1=O [1-100] ({Piperazin2one(3S-Bu,6R-CO)}-CHFGGA[Nle]DAISCY-X1; disulfide 1-12) | remaining at 1 h, 50 µM [1, 5]: 6%; remaining at 2 h, 50 µM [1, 6]: 0% |
| – | – | 21 mL/min/kg | 0.116 µM·h | 0.2 L/kg | 15 mL/min/kg | 12 min | 0.828 µM·h | 0.3 L/kg | 21 mL/min/kg | 18 min | CCCC[C@@H]1NC[C@H](C(=O)N[C@H]2CSSC[C@@H](C(=O)N[C@@H](Cc3ccc(O)cc3)C(=O)N3C[C@H](C(N)=O)NC(=O)[C@@H]3CCCNC(=N)N)NC(=O)[C@H](CO)NC(=O)[C@H]([C@@H](C)CC)NC(=O)[C@H](CCCN)NC(=O)[C@H](CC(=O)O)NC(=O)[C@H](CCCC)NC(=O)[C@H](CCCNC(=N)N)NC(=O)CNC(=O)CNC(=O)[C@H](Cc3ccccc3)NC(=O)[C@H](Cc3c[nH]cn3)NC2=O)NC1=O [1-55] ({Piperazin2one(3S-Bu,6R-CO)}-CHFGGR[Nle]D[Orn]ISCY-X1; disulfide 1-12) | remaining at 1 h, 50 µM [1, 5]: 83%; remaining at 2 h, 50 µM [1, 6]: 70%; AUC ([3]; 5 mg/kg): 0.232 µM·h; Cmax ([3]; 5 mg/kg): 250 nM; Tmax ([3]; 5 mg/kg): 18 min; half-life ([3]; 5 mg/kg): 30 min |
| 91% | 82% | 55 mL/min/kg | 0.061 µM·h | 0.4 L/kg | 43 mL/min/kg | 12 min | 0.263 µM·h | 0.7 L/kg | 72 mL/min/kg | 12 min | CCCC[C@@H]1NC[C@H](C(=O)N[C@H]2CSSC[C@@H](C(=O)N[C@@H](Cc3ccc(O)cc3)C(=O)N3C[C@H](C(N)=O)NC(=O)[C@@H]3CCCNC(=N)N)NC(=O)[C@H](CO)NC(=O)[C@H]([C@@H](C)CC)NC(=O)[C@H](CCCNC(=N)N)NC(=O)[C@H](CC(=O)O)NC(=O)[C@H](CCCC)NC(=O)[C@H](CCCNC(=N)N)NC(=O)CNC(=O)CNC(=O)[C@H](Cc3ccccc3)NC(=O)[C@H](Cc3c[nH]cn3)NC2=O)NC1=O [1-18] ({Piperazin2one(3S-Bu,6R-CO)}-CHFGGR[Nle]DRISCY-X1; disulfide 1-12) | AUC ([3]; 1 mg/kg): 0.04 µM·h; Cmax ([3]; 1 mg/kg): 85 nM; Tmax ([3]; 1 mg/kg): 6 min; half-life ([3]; 1 mg/kg): 12 min; AUC ([3]; 5 mg/kg): 0.255 µM·h; Cmax ([3]; 5 mg/kg): 131 nM; Tmax ([3]; 5 mg/kg): 12 min; half-life ([3]; 5 mg/kg): 96 min |
| 87% | 70% | 21 mL/min/kg | – | – | – | – | – | – | – | – | CCCCCCC(=O)N[C@H]1CSSC[C@@H](C(=O)N[C@@H](Cc2ccc(O)cc2)C(=O)N2C[C@H](C(N)=O)NC(=O)[C@@H]2CCCNC(=N)N)NC(=O)[C@H](CO)NC(=O)[C@H]([C@@H](C)CC)NC(=O)[C@H](CCCNC(=N)N)NC(=O)[C@H](CC(=O)O)NC(=O)[C@@H](CCCC)NC(=O)[C@H](CCCNC(=N)N)NC(=O)CNC(=O)CNC(=O)[C@H](Cc2ccccc2)NC(=O)[C@H](Cc2c[nH]cn2)NC1=O [1-131] (Heptanoyl-CHFGGR[dNle]DRISCY-X1; disulfide 1-12) | – |

| SMILES | remaining at 1 h, 50 µM [1, 4] | remaining at 2 h, 50 µM [1, 4] | clearance [2] | AUC ([2]; 0.3 mg/kg) | Vd ([2]; 0.3 mg/kg) | clearance ([2]; 0.3 mg/kg) | half-life ([2]; 0.3 mg/kg) | AUC ([2]; 2 mg/kg) | Vd ([2]; 2 mg/kg) | clearance ([2]; 2 mg/kg) | half-life ([2]; 2 mg/kg) | also measured |
| --- | --- | --- | --- | --- | --- | --- | --- | --- | --- | --- | --- | --- |
| CCCCCCC(=O)N[C@H]1CSSC[C@@H](C(=O)N[C@@H](Cc2ccc(O)cc2)C(=O)N2C[C@H](C(N)=O)NC(=O)[C@@H]2CCCNC(=N)N)NC(=O)[C@H](CO)NC(=O)[C@H]([C@@H](C)CC)NC(=O)[C@H](CCCNC(=N)N)NC(=O)[C@H](CC(=O)O)NC(=O)[C@H](CCCC)NC(=O)[C@H](CCCNC(=N)N)NC(=O)CNC(=O)[C@@H](C)NC(=O)[C@H](Cc2ccccc2)NC(=O)[C@H](Cc2c[nH]cn2)NC1=O [1-130] (Heptanoyl-CHF[dA]GR[Nle]DRISCY-X1; disulfide 1-12) | – | – | 92 mL/min/kg | – | – | – | – | – | – | – | – | remaining at 1 h, 50 µM ([1]; isolated enzyme neprilysin, incubation with human recombinant NEP at 37° C., 1 h, read-out: hNEP % of Starting Material 1 h): 75%; remaining at 2 h, 50 µM ([1]; isolated enzyme neprilysin, incubation with human recombinant NEP at 37° C., 2 h, read-out: hNEP % of Starting Material 2 h): 56% |
